Laboratory results: ChEMBL document CHEMBL3045446, “In vitro antimicrobial and antimycobacterial activity of some chalcones and their derivatives” (2013)
≈ marks a conversion by molar mass, not a printed value.

What was measured:
Format in all cases: functional
Aspergillus clavatus [1] = assay: Antimicrobial activity against Aspergillus clavatus MTCC 1323 assessed as diameter of growth inhibition zone after 48 hr
Escherichia coli [2] = assay: Antimicrobial activity against Escherichia coli MTCC 739 assessed as diameter of growth inhibition zone after 24 hr
Staphylococcus aureus [3] = assay: Antimicrobial activity against Staphylococcus aureus MTCC 96 assessed as growth inhibition after 24 hr by agar streak dilution method; details: MTCC 96, 24 h
Proteus vulgaris [4] = assay: Antimicrobial activity against Proteus vulgaris MTCC 1771 assessed as growth inhibition after 24 hr by agar streak dilution method; details: MTCC 1771, 24 h
Candida albicans [5] = assay: Antimicrobial activity against Candida albicans MTCC 183 assessed as growth inhibition after 48 hr by agar streak dilution method; details: MTCC 183, 48 h
Aspergillus fumigatus [6] = assay: Antimicrobial activity against Aspergillus fumigatus MTCC 343 assessed as growth inhibition after 48 hr by agar streak dilution method; details: MTCC 343, 48 h
Aspergillus niger [7] = assay: Antimicrobial activity against Aspergillus niger MTCC 282 assessed as growth inhibition after 48 hr by agar streak dilution method; details: MTCC 282, 48 h
Salmonella typhi [8] = assay: Antimicrobial activity against Salmonella enterica subsp. enterica serovar Typhi MTCC 733 assessed as growth inhibition after 24 hr by agar streak dilution method; details: MTCC 733, 24 h
Proteus vulgaris [9] = assay: Antimicrobial activity against Proteus vulgaris MTCC 1771 assessed as diameter of growth inhibition zone after 24 hr
Klebsiella pneumoniae [10] = assay: Antimicrobial activity against Klebsiella pneumoniae MTCC 109 assessed as diameter of growth inhibition zone after 24 hr
Aspergillus fumigatus [11] = assay: Antimicrobial activity against Aspergillus fumigatus MTCC 343 assessed as diameter of growth inhibition zone after 48 hr
Pseudomonas aeruginosa [12] = assay: Antimicrobial activity against Pseudomonas aeruginosa MTCC 741 assessed as diameter of growth inhibition zone after 24 hr
Escherichia coli [13] = assay: Antimicrobial activity against Escherichia coli MTCC 739 assessed as growth inhibition after 24 hr by agar streak dilution method; details: MTCC 739, 24 h
Shigella flexneri [14] = assay: Antimicrobial activity against Shigella flexneri MTCC1457 assessed as growth inhibition after 24 hr by agar streak dilution method; details: MTCC1457, 24 h
Salmonella typhi [15] = assay: Antimicrobial activity against Salmonella enterica subsp. enterica serovar Typhi MTCC 733 assessed as diameter of growth inhibition zone after 24 hr
Bacillus cereus [16] = assay: Antimicrobial activity against Bacillus cereus MTCC 430 assessed as growth inhibition after 24 hr by agar streak dilution method; details: MTCC 430, 24 h
[17] = tested on: Mycobacterium tuberculosis; assay: Antituberculosis activity against Mycobacterium tuberculosis H37Rv assessed as growth inhibition after 12 to 28 days by L-J MIC method; details: for MIC: Mycobacterium tuberculosis, H37Rv
Staphylococcus aureus [18] = assay: Antimicrobial activity against Staphylococcus aureus MTCC 96 assessed as diameter of growth inhibition zone after 24 hr
Shigella flexneri [19] = assay: Antimicrobial activity against Shigella flexneri MTCC1457 assessed as diameter of growth inhibition zone after 24 hr
Aspergillus niger [20] = assay: Antimicrobial activity against Aspergillus niger MTCC 282 assessed as diameter of growth inhibition zone after 48 hr
Bacillus cereus [21] = assay: Antimicrobial activity against Bacillus cereus MTCC 430 assessed as diameter of growth inhibition zone after 24 hr
Candida albicans [22] = assay: Antimicrobial activity against Candida albicans MTCC 183 assessed as diameter of growth inhibition zone after 48 hr
Pseudomonas aeruginosa [23] = assay: Antimicrobial activity against Pseudomonas aeruginosa MTCC 741 assessed as growth inhibition after 24 hr by agar streak dilution method; details: MTCC 741, 24 h
Klebsiella pneumoniae [24] = assay: Antimicrobial activity against Klebsiella pneumoniae MTCC 109 assessed as growth inhibition after 24 hr by agar streak dilution method; details: MTCC 109, 24 h
Aspergillus clavatus [25] = assay: Antimicrobial activity against Aspergillus clavatus MTCC 1323 assessed as growth inhibition after 48 hr by agar streak dilution method; details: MTCC 1323, 48 h

| Structure (SMILES) | diameter of the inhibition zone (DIZ) (Aspergillus clavatus [1]) [mm] | diameter of the inhibition zone (DIZ) (Escherichia coli [2]) [mm] | MIC (Staphylococcus aureus [3]) [µg/mL] | MIC (Proteus vulgaris [4]) [µg/mL] | MIC (Candida albicans [5]) [µg/mL] | MIC (Aspergillus fumigatus [6]) [µg/mL] | MIC (Aspergillus niger [7]) [µg/mL] | MIC (Salmonella typhi [8]) [µg/mL] | diameter of the inhibition zone (DIZ) (Proteus vulgaris [9]) [mm] | diameter of the inhibition zone (DIZ) (Klebsiella pneumoniae [10]) [mm] | diameter of the inhibition zone (DIZ) (Aspergillus fumigatus [11]) [mm] | diameter of the inhibition zone (DIZ) (Pseudomonas aeruginosa [12]) [mm] | MIC (Escherichia coli [13]) [µg/mL] | MIC (Shigella flexneri [14]) [µg/mL] | diameter of the inhibition zone (DIZ) (Salmonella typhi [15]) [mm] | MIC (Bacillus cereus [16]) [µg/mL] | growth inhibition (GI) [17] [%] | MIC [17] [µg/mL] | diameter of the inhibition zone (DIZ) (Staphylococcus aureus [18]) [mm] | diameter of the inhibition zone (DIZ) (Shigella flexneri [19]) [mm] | also measured |
| --- | --- | --- | --- | --- | --- | --- | --- | --- | --- | --- | --- | --- | --- | --- | --- | --- | --- | --- | --- | --- | --- |
| N#Cc1c(-c2ccc([N+](=O)[O-])cc2)cc(-c2ccc(Nc3cc(=O)oc4ccccc34)cc2)nc1N | 22 | 22 | 50 (≈ 105 µM) | 50 (≈ 105 µM) | 12.5 (≈ 26.3 µM) | 25 (≈ 52.6 µM) | 25 (≈ 52.6 µM) | 12.5 (≈ 26.3 µM) | 19 | 19 | 20 | 20 | 25 (≈ 52.6 µM) | 50 (≈ 105 µM) | 23 | 25 (≈ 52.6 µM) | 96 | 250 (≈ 526 µM) | 17 | 20 | diameter of the inhibition zone (DIZ) (Aspergillus niger [20]): 23 mm; diameter of the inhibition zone (DIZ) (Bacillus cereus [21]): 22 mm; diameter of the inhibition zone (DIZ) (Candida albicans [22]): 23 mm; MIC (Pseudomonas aeruginosa [23]): 50 µg/mL (≈ 105 µM); MIC (Klebsiella pneumoniae [24]): 25 µg/mL (≈ 52.6 µM); MIC (Aspergillus clavatus [25]): 25 µg/mL (≈ 52.6 µM) |
| Nc1nc(-c2ccc(Cl)cc2)cc(-c2ccc(Nc3cc(=O)oc4ccccc34)cc2)n1 | 17 | 18 | 50 (≈ 113 µM) | 12.5 (≈ 28.4 µM) | 12.5 (≈ 28.4 µM) | 25 (≈ 56.7 µM) | 50 (≈ 113 µM) | 25 (≈ 56.7 µM) | 23 | 22 | 19 | 16 | 50 (≈ 113 µM) | 25 (≈ 56.7 µM) | 20 | 50 (≈ 113 µM) | 97 | 200 (≈ 454 µM) | 20 | 21 | diameter of the inhibition zone (DIZ) (Aspergillus niger [20]): 17 mm; diameter of the inhibition zone (DIZ) (Bacillus cereus [21]): 19 mm; diameter of the inhibition zone (DIZ) (Candida albicans [22]): 21 mm; MIC (Pseudomonas aeruginosa [23]): 100 µg/mL (≈ 227 µM); MIC (Klebsiella pneumoniae [24]): 12.5 µg/mL (≈ 28.4 µM); MIC (Aspergillus clavatus [25]): 50 µg/mL (≈ 113 µM) |
| Nc1nc(-c2ccc(Nc3cc(=O)oc4ccccc34)cc2)cc(-c2ccc(O)cc2O)n1 | 25 | 22 | 12.5 (≈ 28.5 µM) | 3.12 (≈ 7.12 µM) | 25 (≈ 57 µM) | 12.5 (≈ 28.5 µM) | 12.5 (≈ 28.5 µM) | 12.5 (≈ 28.5 µM) | 28 | 26 | 25 | 23 | 12.5 (≈ 28.5 µM) | 12.5 (≈ 28.5 µM) | 24 | 12.5 (≈ 28.5 µM) | 97 | 200 (≈ 456 µM) | 21 | 23 | diameter of the inhibition zone (DIZ) (Aspergillus niger [20]): 22 mm; diameter of the inhibition zone (DIZ) (Bacillus cereus [21]): 21 mm; diameter of the inhibition zone (DIZ) (Candida albicans [22]): 21 mm; MIC (Pseudomonas aeruginosa [23]): 12.5 µg/mL (≈ 28.5 µM); MIC (Klebsiella pneumoniae [24]): 6.25 µg/mL (≈ 14.3 µM); MIC (Aspergillus clavatus [25]): 6.25 µg/mL (≈ 14.3 µM) |
| CC(=O)N1N=C(c2ccc(Nc3cc(=O)oc4ccccc34)cc2)CC1c1ccccc1 (configuration not stated) | 16 | <10 | 100 (≈ 236 µM) | 100 (≈ 236 µM) | 100 (≈ 236 µM) | 100 (≈ 236 µM) | 100 (≈ 236 µM) | 100 (≈ 236 µM) | 13 | 11 | 13 | 10 | 100 (≈ 236 µM) | 100 (≈ 236 µM) | 13 | 100 (≈ 236 µM) | 95 | 1000 (≈ 2360 µM) | <10 | <10 | diameter of the inhibition zone (DIZ) (Aspergillus niger [20]): <10 mm; diameter of the inhibition zone (DIZ) (Bacillus cereus [21]): 13 mm; diameter of the inhibition zone (DIZ) (Candida albicans [22]): 12 mm; MIC (Pseudomonas aeruginosa [23]): 100 µg/mL (≈ 236 µM); MIC (Klebsiella pneumoniae [24]): 100 µg/mL (≈ 236 µM); MIC (Aspergillus clavatus [25]): 100 µg/mL (≈ 236 µM) |
| CC(=O)N1N=C(c2ccc(Nc3cc(=O)oc4ccccc34)cc2)CC1c1ccccc1Br (configuration not stated) | 14 | 14 | 100 (≈ 199 µM) | 100 (≈ 199 µM) | 25 (≈ 49.8 µM) | 50 (≈ 99.5 µM) | 100 (≈ 199 µM) | 100 (≈ 199 µM) | 15 | 16 | 17 | 12 | 100 (≈ 199 µM) | 100 (≈ 199 µM) | 15 | 100 (≈ 199 µM) | 98 | 200 (≈ 398 µM) | 16 | 14 | diameter of the inhibition zone (DIZ) (Aspergillus niger [20]): 15 mm; diameter of the inhibition zone (DIZ) (Bacillus cereus [21]): 14 mm; diameter of the inhibition zone (DIZ) (Candida albicans [22]): 21 mm; MIC (Pseudomonas aeruginosa [23]): 100 µg/mL (≈ 199 µM); MIC (Klebsiella pneumoniae [24]): 100 µg/mL (≈ 199 µM); MIC (Aspergillus clavatus [25]): 100 µg/mL (≈ 199 µM) |
| O=C(/C=C/c1ccccc1O)c1ccc(Nc2cc(=O)oc3ccccc23)cc1 | 11 | 14 | 100 (≈ 261 µM) | 100 (≈ 261 µM) | 100 (≈ 261 µM) | 50 (≈ 130 µM) | 100 (≈ 261 µM) | 100 (≈ 261 µM) | 15 | 19 | 17 | 15 | 100 (≈ 261 µM) | 100 (≈ 261 µM) | 13 | 100 (≈ 261 µM) | 97 | 500 (≈ 1300 µM) | 15 | 13 | diameter of the inhibition zone (DIZ) (Aspergillus niger [20]): 16 mm; diameter of the inhibition zone (DIZ) (Bacillus cereus [21]): 13 mm; diameter of the inhibition zone (DIZ) (Candida albicans [22]): 13 mm; MIC (Pseudomonas aeruginosa [23]): 100 µg/mL (≈ 261 µM); MIC (Klebsiella pneumoniae [24]): 50 µg/mL (≈ 130 µM); MIC (Aspergillus clavatus [25]): 100 µg/mL (≈ 261 µM) |
| CC(=O)N1N=C(c2ccc(Nc3cc(=O)oc4ccccc34)cc2)CC1c1ccc([N+](=O)[O-])cc1 (configuration not stated) | 17 | 14 | 100 (≈ 213 µM) | 100 (≈ 213 µM) | 100 (≈ 213 µM) | 100 (≈ 213 µM) | 100 (≈ 213 µM) | 100 (≈ 213 µM) | <10 | 13 | 13 | 11 | 100 (≈ 213 µM) | 100 (≈ 213 µM) | 17 | 100 (≈ 213 µM) | 96 | 500 (≈ 1070 µM) | 12 | 13 | diameter of the inhibition zone (DIZ) (Aspergillus niger [20]): 14 mm; diameter of the inhibition zone (DIZ) (Bacillus cereus [21]): 11 mm; diameter of the inhibition zone (DIZ) (Candida albicans [22]): 15 mm; MIC (Pseudomonas aeruginosa [23]): 100 µg/mL (≈ 213 µM); MIC (Klebsiella pneumoniae [24]): 100 µg/mL (≈ 213 µM); MIC (Aspergillus clavatus [25]): 50 µg/mL (≈ 107 µM) |
